Data set [1] in a line: method code SF-GLC, from DOI: 10.1021/es00171a006.
Data set [2] can be described thus: method code SF-TN, from DOI: 10.1002/ardp.19763091008, PMID: 1008678.
Data set [3] can be described thus: method code SF, from DOI: 10.1016/s0968-0896(00)00025-0, PMID: 10882003.
Data set [4] can be described thus: method code SF-GLC, from DOI: 10.1016/j.chemosphere.2005.05.003, PMID: 15967478.
The nature of data set [5]: method code SF-AS, from DOI: 10.1002/jps.2600620542, PMID: 4705706.
Data set [6] is described as follows: method code SF-AS, from DOI: 10.1021/jm00154a021, PMID: 3959031. The note with it: pH 9.0.
A short description of data set [7]: method code SF-RC, from DOI: 10.1002/jlcr.2580210110. The note with it: pH 7.4.
The nature of data set [8]: method code SF-AS, from DOI: 10.1016/s0006-2952(02)01074-2, PMID: 12392818. As to conditions: pH 7.4.
Data set [9] in a line: method code SF-AS, from DOI: 10.1016/s0090-9556(25)07961-9, PMID: 6130927. The note with it: pH 12.0.
A short description of data set [10]: method code SF, from DOI: 10.1093/jnci/60.2.345, PMID: 621753.
Assay in data set [11]: not given
This is another data set of the same source.

Data set [12] in a line: method code SF-RC, from DOI: 10.1023/a:1015825912542, PMID: 1808606. The note with it: pH 7.2.
Data set [13] can be described thus: method code SF-AS, from DOI: 10.1016/s0021-9673(03)00617-4, PMID: 12830921.
Assay in data set [14]: not given
The source holds these as a separate data set.

Assay in data set [15]: not given
This is another data set of the same source.

A short description of data set [16]: method code G-GLC, from DOI: 10.1021/es00169a004.
Data set [17] is described as follows: method code SF-HPLC, from DOI: 10.1016/0006-2952(84)90322-8, PMID: 6704182.
Assay in data set [18]: not given
The source holds these as a separate data set.

Assay in data set [19]: not given
This is another data set of the same source.

Assay in data set [20]: not given
This is another data set of the same source.

Assay in data set [21]: not given
This is another data set of the same source.

Data set [22] is described as follows: method code SF-HPLC, from DOI: 10.1016/s0928-0987(98)00030-x, PMID: 9845810. As to conditions: pH 7.4.
Assay in data set [23]: not given
This is another data set of the same source.

Data set [24] in a line: method code SF-GLC, from DOI: 10.1016/s0021-9673(00)81319-9.
A short description of data set [25]: method code SF-HPLC, from DOI: 10.1002/jps.2600841008, PMID: 8801331. The note with it: pH 3.1.
The nature of data set [26]: method code SF, from Ganellin, C. R., & Durant, G. J. (1981). Histamine H2-receptor agonists and antagonists. Burgers Medicinal Chemistry, 3, 487-552. The note with it: pH 9.2.
Data set [27] is described as follows: method code SF-HPLC, from DOI: 10.1002/jps.10112, PMID: 12115830. The note with it: pH 7.4.
A short description of data set [28]: method code SF-AS, from DOI: 10.1021/jm00162a004, PMID: 3023612.
The nature of data set [29]: method code SF-AS, from PMID: 1705424. As to conditions: pH 7.4.
Data set [30] is described as follows: method code SF-AS, from DOI: 10.1007/s00044-012-0399-x.
A short description of data set [31]: method code SF-RC, from DOI: 10.1248/cpb.39.104, PMID: 2049793. As to conditions: pH 7.4.
Data set [32] is described as follows: method code SF-AS, from DOI: 10.1002/jps.2600711105. As to conditions: pH 7.4.
Data set [33] can be described thus: method code SF-RC, from PMID: 3382460. The note with it: pH 7.0.
Data set [34] can be described thus: method code SF-RC, from DOI: 10.1182/blood.v76.11.2389.bloodjournal76112389, PMID: 2257308. As to conditions: pH 7.4.
The nature of data set [35]: method code SF, from DOI: 10.1055/s-0038-1624171, PMID: 6548017. The note with it: pH 7.4.
Data set [36] in a line: method code SF, from DOI: 10.1016/0378-5173(87)90234-1. The note with it: pH 4.0.
Assay in data set [37]: not given
The source holds these as a separate data set.

Assay in data set [38]: not given
This is another data set of the same source.

A short description of data set [39]: method code SF-GLC, from DOI: 10.1016/0045-6535(95)00311-u.
Data set [40] can be described thus: method code SF-HPLC, from DOI: 10.1021/js970451q, PMID: 9687340. The note with it: pH 6.0.
Data set [41] is described as follows: method code SF-AS, from DOI: 10.1007/s001280000002, PMID: 10757653.
Assay in data set [42]: not given
The source holds these as a separate data set.

A short description of data set [43]: method code SF-GLC,AS, from DOI: 10.2134/jeq1981.00472425001000030028x.
Data set [44] in a line: method code SF-EPR, from DOI: 10.1007/bf01870789, PMID: 2549250. As to conditions: pH 12.0.

In general, logP refers to the decadic logarithm of the partition coefficient of the neutral form, usually between octanol and water. Read a high logP as higher lipophilicity. `Clc1cc(Cl)c2c(c1Cl)Oc1ccccc1O2`: the logP in data set [1] came to 5.57.

`CCNC(=O)C1C2CC3C(OC(=O)C31)C2O` (stereo not given): in data set [2], the logP was -0.35.

As for `Cc1[nH]c(=O)c(C#N)cc1-c1ccncc1`, the logP in [3] worked out at 0.42.

The compound `CC1=CCC(C(C)C)C=C1` (stereo not given) yielded a logP in data set [4] of 4.58.

With `O=C(c1ccncc1)c1ccc(Cl)cc1`, the logP in [5] came to 2.61.

The term logD denotes lipophilicity at a set pH, counting ionised and neutral species. In data set [6], `CN1CCN(CCn2cncc2[N+](=O)[O-])CC1` came in with a logD of -0.2.

`C1C2CC3CC1CC(C2)C3` displayed a logD in data set [7] of 5.2.

As to `C1COC(NC(C2CC2)C2CC2)=N1`, the logP came out at 1.63.

Compound `CC(=O)c1cc2ccccc2oc1=O` yielded a logD in data set [8] of 1.5.

`CC(C)[C@@H](N)Cc1ccccc1`: the logD in data set [9] amounted to 2.59.

Consider `O=NN(CCCl)C(=O)NCCCCNC(=O)N(CCCl)N=O`, for which the logP in data set [10] stood at 0.9.

In turn, `Clc1cc(Cl)c(Oc2ccccc2)cc1Cl` registered a logP in [11] of 5.44.

In turn, `CC(=O)NC(Cc1ccccc1)C(N)=O` (stereo not given) gave a logD in [12] of 0.05.

The compound `CCc1c(C)nc2ccccn2c1=O` returned a logP in data set [13] of 1.58.

Regarding `CC1(C)CC(C(=O)O)CC(C)(C)N1O`, the logP in data set [14] stood at 1.25.

`O=C(O)c1cccc2ccccc12` displayed a logP in [15] of 2.78.

For the compound `Clc1cc(Cl)c(-c2c(Cl)c(Cl)c(Cl)c(Cl)c2Cl)c(Cl)c1Cl`, the logP in data set [16] came out at 7.52.

In data set [17], `CC(=O)Nc1ccn([C@@H]2O[C@H](CO)[C@@H](O)[C@@H]2O)c(=O)n1` came in with a logP of -1.35.

The compound `CCC(C)C1(CC)C(=O)NC(=O)NC1=O` (stereo not given) yielded a logP in [18] of 1.58.

The compound `CCCOCCc1ccc(O)c(O)c1` yielded a logP in [19] of 1.64.

In turn, `O=S(c1cc(Cl)cc(Cl)c1O)c1cc(Cl)cc(Cl)c1O` yielded a logP in [20] of 4.13.

In data set [21], `CC(C)NCC(O)c1ccc(Cl)c(Cl)c1` (stereo not given) yielded a logP of 3.32.

For the compound `Cc1ccc2c(c1)C(=O)N(CCO[N+](=O)[O-])CO2`, in data set [22], the logD stood at 2.41.

`C=CC(=O)OCC(CC)CCCC` (stereo not given): the logP in data set [23] amounted to 4.29.

As to `Clc1cccc(-c2ccccc2)c1`, in [24], the logP came to 4.71.

The compound `O=C(O)CCCCc1ccccc1` displayed a logD in [25] of 2.73.

Consider `CNC(=S)NCCCCc1nc[nH]c1C`, for which, in data set [26], the logD was determined as 0.85.

Compound `CC(SSc1ncc[nH]1)c1ccccc1` (stereo not given) registered a logD in data set [27] of 3.39.

Regarding `CCCC1(CCC)CCC=[N+]1[O-]`, in data set [28], the log partition coefficient (logP) amounted to 0.69.

Compound `CC(C)Cn1cnc2c1c(=O)n(C)c(=O)n2C` displayed a pH-dependent lipophilicity (logD) in data set [29] of 1.28.

For the compound `COC(=O)CN1Cc2ccccc2C1`, the logP in [30] was -0.03.

`CNC(=S)NN=C(C)C(C)(C)C(C)=NNC(=S)NC`: in [31], the logD turned out to be 2.51.

`COCC(O)Cn1c([N+](=O)[O-])nc(C(C)=O)c1C` (stereo not given): the logD in [32] is 0.03.

For `CNC(=O)OC1OC(=O)C2C3C=CC(C3)C12` (stereo not given), in [33], the logD is 0.63.

In [34], `CCc1c(O)c(=O)ccn1CCOC` showed a logD of -0.08.

Take `O=[N+]([O-])c1nccn1CCOc1ccc(I)cc1`: in data set [35], the logD is 2.84.

Compound `O=C(c1ccccc1)n1c(=O)[nH]cc(F)c1=O` had a logD in data set [36] of 0.8.

`CCCCCCCCn1sc(Cl)c(Cl)c1=O` had a logP in [37] of 4.9.

The compound `OC1(c2ccc(Cl)cc2)CCNCC1` returned a logP in [38] of 1.98.

`CCCCCCCCCC(Cl)(Cl)Cl` showed a logP in [39] of 5.85.

For `COc1cc(C)nc(-n2nc(C)cc2OC)n1`, the logD in [40] is 1.35.

Compound `CCOC(=O)c1cccc(C(=O)OCC)n1` gave a logP in [41] of 3.

`CC(=O)c1ccc(C(C)C)cc1` had a logP in data set [42] of 2.98.

`CCN(CC)c1nc(Cl)nc(NC(C)C)n1` came in with a logP in data set [43] of 3.94.

With `CN(C)C1CC(C)(C)N(O)C(C)(C)C1`, the logD in data set [44] amounted to 1.13.

Values taken from the SangsterLogP compilation.
